We go through one substance from patent US20100279941A1, “CD36 MODULATION AND USES THEREOF” (priority 2009, published 2010).

The nature of experiment [1]: Plasma cholesterol, triglyceride, NEFA and glycemia after myocardial ischaemia-reperfusion. Type of experiment: in vivo, mice. The conditions noted are these: for Triglyceride / Glycemia Post-Reperfusion / Total Cholesterol / Glycemia Before Ischemia: 300 μg/kg/day for 2 weeks; for Triglyceride: mean ± S.E.M.; for Glycemia Post-Reperfusion / Total Cholesterol / Glycemia Before Ischemia: mean ± S.E.M. (n). The source says: Animals. CD36^−/− mice were generated by targeted homologous recombination and backcrossed six times to C57BI/6. Wild-type control littermates (CD36^+/+) were bred from the same cross and were therefore of identical genetic background [Febbraio et al., 2000]. Male mice, aged 23 (±1) weeks, were used for experiments. They were fed standard chow (#5075, Charles Rivers, Saint-Constant, Québec, Canada) and water ad libitum, and housed singly during treatment periods (2 or 10 weeks). Daily pharmacological treatments with 300 μg/kg of EP 80317 or CP1A(IV) or vehicle (0.9% NaCl) were done by subcutaneous (s.c.) injections.
Experimental model of IHD: Transient left coronary artery ligation in vivo. Mice were subjected to a transient LCAL surgery as described before, with minor modifications [Tarnayski et al., 2004]. Mice were injected i.p. with buprenorphine (0.05 mg/kg) and placed in an induction chamber with inhalation anesthesia comprised of 3% isoflurane mixed with 100% oxygen. Mice were intubated with a blunt ended 20-gauge catheter into the trachea via the mouth and mechanically ventilated at a tidal volume of 7 ml/kg at 130 respirations/min with a MiniVent™ mouse ventilator (model 845, Harvard Apparatus, Saint-Laurent, QC, Canada). Anesthesia was maintained with 1.5-2% isoflurane and the animals were kept warm using electrical heating pads during the surgical procedure. The chest was opened by a horizontal incision through the skin and muscle layers at the third intercostal space exposing the left side of the heart. […] Visual blanching distal to the coronary occlusion confirmed myocardial ischaemia. Lidocaine (6 mg/kg) was administered i.p. just following occlusion and prior to reperfusion. After 30 minutes, the PE10 tubing was removed allowing reperfusion. The lungs were reinflated and the chest wound closed layer by layer before extubation. […] Hearts were immediately frozen at −80° C. unless otherwise stated. […]
Plasma and tissue assays. Plasma insulin, triglyceride (TG) and NEFA levels were measured as previously described [Menard et al., 2009]. In vitro lipolysis was prevented by collecting blood in the presence of 40 mM Orlistat (Calbiochem, San Diego, Calif., USA) and centrifuging rapidly. Plasma and tissue lipids were extracted according to the method described by Folch et al. [Folch et al., 1957]. The non-metabolized fraction of [^18F]-FTHA in plasma was determined using thin-layer chromatography from blood samples taken 2, 3, 5, 10, and 30 min after FTHA injection, and the metabolite corrected plasma curve was calculated by linear interpolation and used to correct the plasma input function (modified from [Ci et al., 2006]). Myocardial mitochondria were extracted with measurement of GDH activity to correct for extraction efficiency [Menard et al., 2009].

A further experiment relates to AMPK. Kind of experiment: Western blot of left ventricle: phosphorylated AMPK to total AMPK. The class given is in vivo, mice. The procedure: Experimental model of IHD: Transient left coronary artery ligation in vivo. Mice were subjected to a transient LCAL surgery as described before, with minor modifications [Tarnayski et al., 2004]. Mice were injected i.p. with buprenorphine (0.05 mg/kg) and placed in an induction chamber with inhalation anesthesia comprised of 3% isoflurane mixed with 100% oxygen. Mice were intubated with a blunt ended 20-gauge catheter into the trachea via the mouth and mechanically ventilated at a tidal volume of 7 ml/kg at 130 respirations/min with a MiniVent™ mouse ventilator (model 845, Harvard Apparatus, Saint-Laurent, QC, Canada). Anesthesia was maintained with 1.5-2% isoflurane and the animals were kept warm using electrical heating pads during the surgical procedure. The chest was opened by a horizontal incision through the skin and muscle layers at the third intercostal space exposing the left side of the heart. […] Visual blanching distal to the coronary occlusion confirmed myocardial ischaemia. Lidocaine (6 mg/kg) was administered i.p. just following occlusion and prior to reperfusion. After 30 minutes, the PE10 tubing was removed allowing reperfusion. The lungs were reinflated and the chest wound closed layer by layer before extubation. […] Hearts were immediately frozen at −80° C. unless otherwise stated.
Western blot analysis. Total ventricular protein lysates were prepared as described previously [Bodart et al., 2002]. Left ventricles were homogenized in PBS containing a protease inhibitor cocktail (Roche Applied Science, Indianapolis, Ind., USA) and 1 mM sodium orthovanadate. Homogenates were incubated for 10 min on ice with an equal volume of lysis buffer (NaCl 300 mM, Tris-HCl 100 mM, 2% Triton X-100, 0.2% SDS, 50 mM NaF, 4 mM EDTA, 1 mM sodium orthovanadate and protein inhibitors, pH=7.5), and centrifuged at 14,000 g for 30 minutes at 4° C. The protein concentration of the su pernatant was determined by the bicinchoninic acid (BCA) protein assay (Pierce Biotechnology, Rockford, Ill., USA). Equal amounts (50 or 100 μg) of protein extracts were separated on 10% SDS-polyacrylamide gels and transferred electrophoretically to polyvinylidene difluoride (PVDF) membranes (Bio-Rad Laboratories, Hercules, Calif., USA) for immunoblotting. […] Antibody binding was detected by enhanced chemiluminescence using an alpha Imager™ (Alpha Innotech Corporation, San Leandro, Calif., USA). Quantification of the digital images obtained was performed using ImageQuant™ 5.2 software (Molecular Dynamics, Sunnyvale, Calif., USA).

[2] abbreviates: 6 h post-reperfusion, CD36^+/+ mice.
[3] abbreviates: 6 h post-reperfusion, CD36^−/− mice.
[4] abbreviates: 48 h post-reperfusion, CD36^+/+ mice.
Setting [5] is: 48 h post-reperfusion, CD36^−/− mice.

“HAIC-2MeDTrp-DLys-Trp-DPhe-Lys-NH2 [EP 80317]”: the “effect on plasma TG” value in experiment [1] (6 or 48 hours following reperfusion, both CD36^+/+ and CD36^−/− mice, in words) is on record as “did not modulate”. The “attenuation of plasma NEFA elevation” value in experiment [1] (6 hours after reperfusion, CD36-dependent (CD36^+/+ mice), p<0.05 vs vehicle) was found to be 29%. Also, the Triglyceride in experiment [1] (setting [2]) worked out at 0.35 ± 0.04 mmol/L; in experiment [1] (setting [3]), 0.58 ± 0.16 mmol/L; in experiment [1] (setting [4]), 0.44 ± 0.03 mmol/L; in experiment [1] (setting [5]) it was 0.55 ± 0.06 mmol/L. The results for the “Glycemia Post-Reperfusion” value in experiment [1] (setting [2]) and in experiment [1] (setting [3]) were 13.6 ± 1.2 (20) mmol/L and 8.8 ± 0.6 (17) mmol/L, respectively. Also, the “Total Cholesterol” value is 1.4 ± 0.3 (4) mmol/L in experiment [1] (setting [2]), 1.9 ± 0.1 (5) mmol/L in experiment [1] (setting [3]), 1.5 ± 0.03 (6) mmol/L in experiment [1] (setting [4]) and 2.5 ± 0.2 (4) mmol/L in experiment [1] (setting [5]). The “effect on plasma NEFA levels” value in experiment [1] (48 hours after reperfusion, in words) is recorded as “no effect”. The “Glycemia Before Ischemia” value in experiment [1] (CD36^+/+ mice) is 10.6 ± 0.4 (15) mmol/L; in experiment [1] (CD36^−/− mice), 9.3 ± 0.5 (8) mmol/L. Moreover, in the experiment with AMPK (6 hours reperfusion, CD36^+/+ mice, p<0.01), the “increase of P-AMPK to total AMPK band density ratio” value came to 121%. Also, the “effect on P-AMPK/AMPK ratio” value in the experiment with AMPK (6 hours reperfusion, CD36^−/− mice, in words) is given as “no effect”. For the same substance, in the experiment on AMPK (48 hours reperfusion, CD36^+/+ mice, in words), the P-AMPK/AMPK density ratio result was “tended to decrease”. Moreover, the “effect on AMPK phosphoprotein signal” value in the experiment with AMPK (48 hours reperfusion, genotype not printed in the sentence (FIG. 7D), in words) is “no significant effect”.
